Patent US12186361B2, “Method and formulation for inhalation” (Monash University, priority 2011, dated 2025)

Assays:
[1] = Oxytocin stability: LC/MS assay content recovered after TSI experiments; format: physicochemical; details: all TSI stages, capsules and inhalation devices, after spray drying at 70° C. outlet
Description: All five capsules were activated into the same TSI. The used capsules and the inhalers were then washed with Milli-Q water into a 100 mL volumetric flask and made up to volume. This was called the ‘residual’ stage. The parts that made up Stage 1 (parts A, B, C and D) were washed into a 200 mL volumetric flask and the parts that made up Stage 2 (parts E, F, G and H) were washed into a 50 mL volumetric flask with Milli-Q water and called ‘stage 1’ and ‘stage 2’ respectively. The amounts of oxytocin in each stage of the TSI were determined by LC/MS assay. The fine particle fraction (FPF) was calculated as the amount of powder that had reached stage 2 of the TSI apparatus divided by total amount of drug that was assayed. This test was the most important measure as it can determine whether a powder containing oxytocin can be formulated with suitable aerosol deposition, and consequent absorption from the lung.
Peptides can potentially be denatured due to extreme heat. From the tests that were conducted in this study, the only indication as to oxytocin stability was the LC/MS assay content following the TSI experiments.

[2] = tested on: uterine contraction (uterine EMG activity); assay: In vivo uterine EMG activity after oxytocin delivery in post-partum ewes (Example 5); parameters: species or system sheep; details: for delay from oxytocin administration to uterine contractile response (first EMG burst): post-partum ewes, n=5, average
Text: On day 135 gestational age, pregnant ewes (n=5) were anaesthetised with thiopentone in preparation for surgery. Isuflorane (2.5% in oxygen) was used to maintain anaesthesia and depomycin, procaine penicillin and dihydrostreptomycin were given for pain relief and to reduce the risk of infection. Each ewe was shaved and a 10 cm incision was made in the abdominal skin at the midline below the navel to expose the uterine wall, with care taken to avoid large blood vessels.
Three sterile stainless steel wires for measuring electromyographical (EMG) activity (0.07 mm diameter, inside a 2 mm catheter) were embedded in the smooth muscle layer of the myometrium surrounding the womb and held there by two stitches. The electrodes were passed through a catheter and out of the ewe via a small incision (2 cm) through the right flank. A catheter was inserted in the right jugular to allow for blood samples and to induce labour. Ewes were returned to metabolic cages and given 3-5 days to recover from surgery.
Labour was induced with two 5 ml intravenous injections of dexamethasone (consisting of 5 mg of dexamethasone phosphate and 10 mg of dexamethasone phenylpropionate) 24 hours apart. Labour occurred 54±2 hours after the first dexamethasone injection.
Oxytocin administrations, as detailed above, were performed within 15 hours of delivery. Each sheep received an intra-tracheal dose of dry powder oxytocin formulation, an intra-tracheal instillation of oxytocin in solution and an intramuscular injection of oxytocin. There was at least a one and a half hour washout period between each treatment.
For intra-tracheal administration, an endoscope was passed through the nasal passage into the trachea and positioned near the first bronchial bifurcation, where either a 1 mL aliquot of oxytocin in solution (10 IU) was released or 10 mg (average) of dry powder was delivered through a modified PennCentury powder delivery device.
The dry powder formulation comprised a spray dried composition, as described in example 1. This powder contained 13 units of oxytocin per mg by mass, co-spray dried with equal proportions by mass of mannitol, glycine and leucine.
During this procedure, bronchoscope video images were captured using a Linvatec IM3301 Pal Video Camera attached to an endoscope (Pentax FG-16X), which was saved as a digital file onto a computer using Video Capture Software.
A cyberamp 380 in conjunction with MACLAB hardware (400 Hz Sample rate) and Chart 4 software (10V Input range) was used to display and record action potential originating from smooth muscle cells within the uterus. The cyberamp 380 used the AI401probe with positive input set at AC and negative input set at Ground. The AC cut off was 10 Hz and the prefilter gain set at 100 mV. The low pass filter was set at 300 Hz, the notch filter set to off, the output gain set to 5 and the total gain left at 500. Two way repeated measure ANOVA was performed to determine the statistical significance of our data.

[3] = pulmonary versus IM delivery and post-partum activity

## CC[C@H](C)[C@@H]1NC(=O)[C@H](Cc2ccc(O)cc2)NC(=O)[C@@H](N)CSSC[C@@H](C(=O)N2CCC[C@H]2C(=O)N[C@@H](CC(C)C)C(=O)NCC(N)=O)NC(=O)[C@H](CC(N)=O)NC(=O)[C@H](CCC(N)=O)NC1=O [oxytocin]
[1]
  oxytocin recovered of the initial capsule's dose: 90.23±5.41%
[2]; IM compared to airway delivery and normal post-partum activity
  total duration of EMG activity: significantly longer
[2]; IM delivery
  delay from oxytocin administration to uterine contractile response (first EMG burst): approximately 250 seconds
[2]; pulmonary (intra-tracheal) delivery
  delay from oxytocin administration to uterine contractile response (first EMG burst): faster time of onset
[2]; [3]
  length of the initial burst of EMG activity: No differences
  number of bursts over the first 30 minutes following the initial burst: nor was there a difference
